“Also recorded” adds a separate entry of the source. Ends that are not written are not given here.

Consider twelve compounds from US5688640A, “Methods of screening of effectors of endothelin converting enzyme-1” (Board of Regents, The University of Texas System, priority 1994, dated 1997).

The target of data set [1] is T1, human ETA receptor (Homo sapiens, UniProt P25101).
T1 sequence (P25101 21-427): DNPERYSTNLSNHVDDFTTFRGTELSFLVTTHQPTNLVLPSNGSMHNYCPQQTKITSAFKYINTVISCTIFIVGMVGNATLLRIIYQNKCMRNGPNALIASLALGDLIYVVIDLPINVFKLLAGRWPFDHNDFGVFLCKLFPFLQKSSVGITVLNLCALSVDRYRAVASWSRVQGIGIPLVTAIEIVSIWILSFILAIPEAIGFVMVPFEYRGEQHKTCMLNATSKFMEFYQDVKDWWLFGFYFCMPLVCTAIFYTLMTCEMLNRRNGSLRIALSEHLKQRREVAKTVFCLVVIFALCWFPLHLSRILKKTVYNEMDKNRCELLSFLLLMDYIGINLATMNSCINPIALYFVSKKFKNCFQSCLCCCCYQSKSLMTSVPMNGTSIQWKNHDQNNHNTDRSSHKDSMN
Briefly: Ca2+ transient bioassay in CHO cells expressing human ETA receptors. It is filed as cell-based.
Method: Bioassay of culture supernatants from preproET-1-transfected CHO/ECE-1 cells using CHO cells expressing human ETA receptors as reporter cells. Sup-A and Sup-B represents the serum-free medium conditioned for 12 hours with CHO/ECE-1 and CHO cells each transiently transfected with the preproET-1 construct, respectively.
For the Ca^2+ transient bioassay (see below), Phenol Red-free CHO-SFM medium (Gibco/BRL) without serum was used in order to avoid artefacts induced by serum and the dye.
A CHO stable transfectant clone expressing human ETA receptors was loaded with fura-2/AM, and ET-1 induced intracellular calcium transients were monitored by a Jasco CAM-110 Intracellular Ion Analyzer as previously described (Sakamoto et al., 1993).
The functional authenticity of the immunoreactive mature peptide produced from the double-transfected cells was examined with a bioassay system that uses another line of CHO cells expressing human ETA receptors as reporter cells. A stable transfectant cell line was obtained by transfecting CHO cells with a human ETA receptor construct (Sakamoto et al., 1993). […] Next the supernatants from the preproET-1-transfected CHO/ECE-1 cells were added, so that the final concentration of ET-1 as measured by EIA was ≈20 pM.

In data set [2] the target is T2, ECE (Bos taurus, UniProt Q28010).
T2 construct: full length 758 aa
T2 sequence (Q28010 1-758): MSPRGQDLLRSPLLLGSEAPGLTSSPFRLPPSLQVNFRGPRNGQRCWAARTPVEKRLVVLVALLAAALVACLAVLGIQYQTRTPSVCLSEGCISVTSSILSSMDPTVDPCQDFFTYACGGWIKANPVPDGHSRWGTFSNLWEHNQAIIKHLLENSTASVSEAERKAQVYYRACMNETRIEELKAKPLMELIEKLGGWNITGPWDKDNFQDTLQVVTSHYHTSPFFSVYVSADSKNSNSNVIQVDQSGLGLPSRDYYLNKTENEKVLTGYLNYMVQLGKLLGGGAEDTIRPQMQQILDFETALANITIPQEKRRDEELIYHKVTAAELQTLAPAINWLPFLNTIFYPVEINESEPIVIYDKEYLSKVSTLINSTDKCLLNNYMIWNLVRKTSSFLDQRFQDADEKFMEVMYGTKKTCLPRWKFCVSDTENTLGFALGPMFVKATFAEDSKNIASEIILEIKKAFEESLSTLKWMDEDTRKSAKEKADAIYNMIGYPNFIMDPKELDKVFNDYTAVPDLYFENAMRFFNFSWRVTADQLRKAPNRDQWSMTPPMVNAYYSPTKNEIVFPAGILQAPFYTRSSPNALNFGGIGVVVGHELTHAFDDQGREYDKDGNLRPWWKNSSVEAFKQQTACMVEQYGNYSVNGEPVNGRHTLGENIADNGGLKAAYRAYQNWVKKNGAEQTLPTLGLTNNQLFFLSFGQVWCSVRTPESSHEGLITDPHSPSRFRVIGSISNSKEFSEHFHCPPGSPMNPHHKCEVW
In words: ECE activity in bovine adrenal cortex membrane fractions. It is filed as biochemical.
Method: Bovine adrenal glands were obtained at a local slaughter house, immediately immersed in ice-cold Dulbecco's phosphate buffered saline (PBS), and brought to the laboratory within 2 hours. All subsequent procedures were performed at 4° C. Adrenal cortices were carefully separated from the medulla and connective tissue. […] The homogenate was centrifuged at 1,000×g for 10 min, and the resulting supernatant was further centrifuged at 100,000×g for 60 min. The pellet was resuspended in 5×volume of buffer A by a Teflon homogenizer, and centrifuged again at 100,000×g for 60 min. The crude membrane pellet was solubilized at 10-20 mg protein/ml in buffer A containing 2.5% C12 E10 for 30 min. The mixture was centrifuged at 100,000×g for 60 min, and the supernatant was saved as solubilized membrane.

Data set [3] deals with T3, ECE-1 (Bos taurus, UniProt P42891).
T3 construct: The entire coding regions from bovine ECE-1; made in house
T3 sequence (P42891 with tags, fused parts or gaps A87G/A695G limits assumed): T2 sequence (Q28010 1-758)
Briefly: ECE activity in solubilized CHO/ECE-1 membranes/homogenates, protease inhibitors (generation of mature ET-1 from big ET-1 by EIA). It is filed as biochemical, bovine. Particulars: for inhibition of ECE activity (in words): CHO/ECE-1 membranes.
Method: Solubilized membranes were prepared from this homogenate as described under Purification of ECE, except that buffer B was used instead of buffer A. For protease inhibitor studies, membranes were prepared by using buffer B without pepstain A, PMSF and pCMS.

For data set [4], the target named is T3, ECE-1. Briefly: Substrate conversion / isopeptide selectivity of cloned ECE-1 (CHO/ECE-1 membranes or homogenate, EIA). It is filed as biochemical, bovine. Particulars: in vitro; big endothelin isopeptides 0.1 μM. How it is done:
FIG. 2A. Functional expression of ECE-1 cDNA in transfected CHO cells.
FIG. 2E. Isopeptide selectivity of ECE-1 expressed in solubilized CHO/ECE-1 membranes. Designated synthetic big endothelin isopeptides (0.1 μM) were used as substrates and generation of corresponding mature peptides were measured by EIA.
Reaction mixtures for ECE assay (50 μl) contained 0.1M sodium phosphate buffer (pH 6.8), 0.5M NaCl, 0.1 μM human big ET-1(1-38) and enzyme fraction. For some studies, the reactions were preincubated at 37° C. with various protease inhibitors for 15 minutes prior to the addition of big ET-1. The reactions were incubated at 37° C. for 30 min in siliconized 0.5-ml microcentrifuge tubes. […] Duplicate assay wells were used for each enzyme reaction. Protein concentration was determined by the Bradford method (Bio-Rad) using IgG as standard.

For data set [5], the target named is T3, ECE-1. Briefly: Production of mature ET-1 by 1:1 co-cultures of CHO/ECE-1 and CHO/preproET-1 cells (conversion of exogenous big ET-1). It is filed as cell-based, bovine.
Method: (§1) Transient transfection of the preproET-1 cDNA was performed by the DEAE-dextran method as described (Sakurai et al., 1990). Twelve hours after transfection, cells were refed with fresh medium with or without ECE inhibitors. The medium was conditioned for an additional 12 hours and directly subjected to EIA for mature and big ET-1 (Suzuki et al., 1990; Suzuki et al., 1989). For the Ca^2+ transient bioassay (see below), Phenol Red-free CHO-SFM medium (Gibco/BRL) without serum was used in order to avoid artefacts induced by serum and the dye.
Next, the ability of CHO/ECE-1 cells to convert exogenously supplied big ET-1 was examined by co-culturing the cells with a separate CHO cell line that was stably transfected with the preproET-1 construct (CHO/preproET-1 cells).
Data set [6] concerns the target T3, ECE-1. In words: Secretion of big and mature ET-1 by preproET-1-transfected CHO/ECE-1 cells (conversion of endogenous big ET-1). It is filed as cell-based, bovine.
Method: as §1
To examine whether the expressed ECE-1 can convert big ET-1 in intact cells, paired cultures of CHO/ECE-1 cells and untransfected CHO cells were transiently transfected with the preproET-1 construct. After the transient transfection, the amounts of mature and big ET-1 secreted into the medium were measured by EIA. […] The functional authenticity of the immunoreactive mature peptide produced from the double-transfected cells was examined with a bioassay system that uses another line of CHO cells expressing human ETA receptors as reporter cells. […] The cells were loaded with the Ca^2+ indicator Fura-2/AM, and directly challenged with serum-free, Phenol Red-free culture supernatants from the aforementioned double-transfection protocols. […] Next the supernatants from the preproET-1-transfected CHO/ECE-1 cells were added, so that the final concentration of ET-1 as measured by EIA was ≈20 pM.
The subject of data set [7] is CHO/ECE-1 cells. Briefly: Concentration of intact compound in culture medium by HPLC before and after culture with CHO/ECE-1 cells.
For data set [8] the following is noted: ET-1(1-20) and ET-1(1-22) relative to authentic ET-1(1-21); cited from earlier work.
In data set [9] the test system is endothelial ECE. Particulars: cited from earlier work; for inhibition of endothelial ECE activity (in words): membranes and purified preparations.
The test system of data set [10] is cultured endothelial cells. The settings on record: cited from earlier work.
Data set [11] addresses T3, ECE-1. Briefly: HPLC analysis of big ET-1 conversion by partially purified ECE-1 from CHO/ECE-1 cells. The settings on record: 5 μM big ET-1, 24 hr. In kind it is biochemical, bovine. The procedure:
FIG. 3. HPLC analysis of big ET-1 conversion by partially purified ECE-1 from CHO/ECE-1 cells. ECE-1 was partially purified from solubilized CHO/ECE-1 membranes by WGA-agarose chromatography as described in Example 1. The enzyme fraction (800 μg protein) was incubated at 37° C. with 1 μM big ET-1 in 800 μl of ECE assay buffer. […] The reaction mixture was separated by HPLC as described in Example 1. Arrows indicate elution times of the authentic peptides.
Samples were injected into a C18 reverse-phase HPLC column (Ultrasphere ODS 5 μm, 4.6×250 mm; Beckman), which was eqhilibrated with 18% (v/v) acetonitrile/0.1% (v/v) TFA and maintained at 40° C. The column was eluted at a flow rate of 1 ml/min with an 18-30% linear gradient of acetonitrile in 0.1% TFA over 12 minutes followed by a 30-36% linear gradient over an additional 12 minutes. Peptides were detected by UV absorbance at 210 nm. […] To confirm chemical authenticity of immunoreactivity in culture supernatants, the conditioned medium was pre-extracted with a Sep-Pak C18 cartridge as described (Suzuki et al., 1989) before HPLC. HPLC fractions (0.5 ml) were collected and evaporated to dryness under vacuum. […] No other immunoreactive peaks were detected. […]

Data set [12] relates to ECE. Particulars: cited from earlier work.

Turning to `CC(C)C[C@H](NC(=O)N1CCCCCC1)C(=O)N[C@H](Cc1cn(C)c2ccccc12)C(=O)N[C@H](Cc1ccccn1)C(=O)O` [FR139317], in data set [1] (supernatant with ≈20 pM ET-1), the “inhibition of Ca2+ response to CHO/ECE-1 supernatant (in words)” value was “completely abolished”.

By inhibition is commonly meant the change of the read-out against control, counted positive when it falls. Consider `O=C(O)CN(CCN(CC(=O)O)CC(=O)O)CC(=O)O` [EDTA], for which the inhibition at 1000 µM in data set [2] (read-out: inhibition of ECE activity) was more than 90%.

Turning to `C[C@H](CS)C(=O)N1CCC[C@H]1C(=O)O` [Captopril], in [3] (in vitro), the “inhibition of ECE activity (in words)” value is given as “not inhibited; also recorded: not by thiorphan or captopril”.

With `O=S(=O)(O)c1cc[c]([Hg][Cl])cc1` [pCMS, p-chloro-mercuriphenylsulphonic acid], the “ECE activity (% of ECE activity without inhibitors)” value in [3] (inhibitor 100 μM, means of duplicate assays from two independent experiments) was found to be 298%.

Turning to “big ET-1(1-31): C-terminally truncated substrate (CSCSSLMDKECVYFCHLDIIWVNTPEHVVPY; ends and bridges not checked; cysteine pairing not given here; UniProt P05305 53-83, looked up, fragment)”, the “processing as ECE-1 substrate (in words)” value in data set [4] is on record as “did not generate detectable levels of mature peptide; also recorded: cannot be an ECE-1 substrate”.

Regarding `c1cnc2c(c1)ccc1cccnc12` [1,10-phenanthroline], the “inhibition of ECE activity (in words)” value in [3] (in vitro) is “inhibited”.

In general, IC50 refers to the point on the concentration scale where inhibition reaches its midpoint. `COc1c2c(c(O)c3c1C(O)Cc1cc(CC(C)O)c(C(=O)O)c(O)c1-3)C(=O)c1cccc(O)c1C2=O` (stereo not drawn) [FR901533, 1,6,9,14-tetrahydroxy-3-(2-hydroxypropyl)-7-methoxy-8,13-dioxo-5,6,8,13-tetrahydro-benzo[a]naphthacene-2-carboxylate Na]: the “inhibition of ECE activity (in words)” value in data set [3] (in vitro) is listed as “efficiently inhibited”. The IC50 in data set [3] (in vitro, solubilized CHO/ECE-1 membranes, read-out: apparent IC50 for inhibition of ECE activity) is approximately 1500 nM; in data set [5], approximately 1000 nM. Moreover, the “inhibition of conversion of exogenous big ET-1 (in words)” value in [5] (added to medium at low μM concentrations) is “efficiently inhibited”. Also, the “inhibition of production/secretion of mature ET-1 by live double-transfected cells (in words)” value in data set [6] (inhibitor added to medium) is recorded as “did not inhibit”. Moreover, the “measured concentration in medium after culture” value in data set [7] (100 μM nominal, after 72-hr culture with CHO/ECE-1 cells) amounted to 94 µM. Also, in data set [7] (100 μM nominal, before 72-hr culture with CHO/ECE-1 cells), the “measured concentration in medium before culture” value turned out to be 93 µM. Moreover, in data set [7] (72-hr culture with CHO/ECE-1 cells), the “degradation by the cells (in words)” value is “not degraded”.

For “ET-1(1-22): ET-1(1-22) (CSCSSLMDKECVYFCHLDIIWV; ends and bridges not checked; cysteine pairing not given here; UniProt P05305 53-74, looked up, fragment)”, the “vasoconstrictor/biological activity (in words)” value in data set [8] is “at least three orders of magnitude weaker”.

The term Km denotes the concentration of substrate that gives half-maximal velocity. Take “big ET-1: human big ET-1(1-38) obtained from American Peptides (CSCSSLMDKECVYFCHLDIIWVNTPEHVVPYGLGSPRS; ends and bridges not checked; cysteine pairing not given here; UniProt P05305 53-90, looked up)”: the Km in data set [9] (crude membranes and purified enzyme preparations, read-out: apparent Km of endothelial ECE) was 1 to 10 µM. In addition, the “conversion of exogenous big ET-1” value in data set [5] (co-culture with CHO/ECE-1 cells) is 5-10%. Also, the “conversion of endogenous big ET-1 (intracellular)” value in data set [6] (CHO/ECE-1 cells, depending on experimental conditions) is listed as 50-90%. For the same compound, the “concentration secreted in culture supernatant” value in [6] (preproET-1-transfected CHO/ECE-1 cells) was found to be 46 pM. Besides, in data set [6] (preproET-1-transfected CHO/ECE-1 cells, no inhibitor), the “conversion of endogenous big ET-1 to mature peptide, typical culture” value is 84%. In [10] (cultured endothelial cells), the “conversion of endogenously produced big ET-1” value is 60-80%. In data set [4], the “processing as ECE-1 substrate (in words)” value was “more efficiently than big ET-2 and big ET-3”. Also, the “intracellular Ca2+ response of ETA reporter cells (in words)” value in data set [1] (20 pM mature ET-1 (final), 1,000-fold higher concentration of big ET-1, supernatant at ≈20 pM ET-1) is “did not respond”. For the same compound, in data set [11], the “conversion of big ET-1 into two peptide products” value is listed as more than 90% and the “product yield judged by areas under HPLC peaks” value is listed as more than 80%. Besides, the “phosphoramidon-sensitive conversion of exogenously administered big ET-1 (in words)” value in data set [12] (isolated perfused tissues and whole animal preparations) is reported as “only up to a few %”.

With “ET-1(1-20): ET-1(1-20) (CSCSSLMDKECVYFCHLDII; ends and bridges not checked; cysteine pairing not given here; UniProt P05305 53-72, looked up, fragment)”, in [8], the “vasoconstrictor/biological activity (in words)” value is recorded as “at least three orders of magnitude weaker”.

As to `O=C(O)CNC(=O)C(CS)Cc1ccccc1` (stereo not drawn) [Thiorphan], the “inhibition of endothelial ECE activity (in words)” value in data set [9] is “not by thiorphan”. Besides, the “inhibition of ECE activity (in words)” value in data set [3] (in vitro) is listed as “not inhibited; also recorded: not by thiorphan or captopril”.

Consider `CC(C)C[C@H](NP(=O)(O)O[C@@H]1O[C@@H](C)[C@H](O)[C@@H](O)[C@H]1O)C(=O)N[C@@H](Cc1c[nH]c2ccccc12)C(=O)O` [Phosphoramidon], for which the “inhibition of endothelial ECE activity (in words)” value in [9] was “low μM range”. In data set [10] (added to the medium), the “effect on production of mature ET-1 (in words)” value is given as “decreases the production of mature ET-1 in a dose dependent manner”. The same compound returned an inhibition at 100 µM in data set [2] (100 μM, bovine adrenal cortex membranes) of more than 90%. Also, in data set [12] (whole animals and isolated perfused organs, most assay systems), the “inhibition of conversion of exogenous big ET-1 (in words)” value is listed as “consistently inhibits the conversion”.
